Test results reported in publication PMC10763724 (Molecular cancer therapeutics, 2019).
Like-named read-outs stand apart in the source and are kept apart here. One block for each compound: values may come before it.

Legend:
ALDH1A1 [1] = conditions: cited from earlier work
ALDH3A1 [2] = conditions: cited from earlier work
ALDH2 [3] = conditions: read-out: IC50 for ALDH2; cited from earlier work
HNSCC xenograft models = conditions: 24 mg/kg/day, implantable osmotic mini pumps; cited from earlier work
ALDH1A1 [4] = molecular target: T1, ALDH1A1 (Homo sapiens, UniProt P00352); assay: ALDH1A1 isoform-specific enzyme assay; type: biochemical; conditions: 15 minutes preincubation
T1 sequence (P00352 1-501): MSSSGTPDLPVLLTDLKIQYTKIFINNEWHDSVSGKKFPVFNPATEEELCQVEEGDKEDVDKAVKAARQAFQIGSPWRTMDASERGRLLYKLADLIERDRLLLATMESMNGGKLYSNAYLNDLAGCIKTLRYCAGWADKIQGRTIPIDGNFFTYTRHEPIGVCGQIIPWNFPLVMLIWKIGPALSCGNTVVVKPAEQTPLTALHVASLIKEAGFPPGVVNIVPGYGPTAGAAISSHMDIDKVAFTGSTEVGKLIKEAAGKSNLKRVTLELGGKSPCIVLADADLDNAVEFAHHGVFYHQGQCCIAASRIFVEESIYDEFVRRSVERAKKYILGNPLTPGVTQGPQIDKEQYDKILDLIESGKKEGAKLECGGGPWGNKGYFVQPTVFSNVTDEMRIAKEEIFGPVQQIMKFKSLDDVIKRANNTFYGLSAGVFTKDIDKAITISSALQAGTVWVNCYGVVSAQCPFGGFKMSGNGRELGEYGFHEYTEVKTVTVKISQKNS

ALDH2 [5] = molecular target: T2, ALDH2 (Homo sapiens, UniProt P05091); assay: ALDH2 isoform-specific enzyme assay; type: biochemical; conditions: read-out: IC50s ALDH2; acetaldehyde substrate, 15 minutes preincubation
T2 sequence (P05091 18-517): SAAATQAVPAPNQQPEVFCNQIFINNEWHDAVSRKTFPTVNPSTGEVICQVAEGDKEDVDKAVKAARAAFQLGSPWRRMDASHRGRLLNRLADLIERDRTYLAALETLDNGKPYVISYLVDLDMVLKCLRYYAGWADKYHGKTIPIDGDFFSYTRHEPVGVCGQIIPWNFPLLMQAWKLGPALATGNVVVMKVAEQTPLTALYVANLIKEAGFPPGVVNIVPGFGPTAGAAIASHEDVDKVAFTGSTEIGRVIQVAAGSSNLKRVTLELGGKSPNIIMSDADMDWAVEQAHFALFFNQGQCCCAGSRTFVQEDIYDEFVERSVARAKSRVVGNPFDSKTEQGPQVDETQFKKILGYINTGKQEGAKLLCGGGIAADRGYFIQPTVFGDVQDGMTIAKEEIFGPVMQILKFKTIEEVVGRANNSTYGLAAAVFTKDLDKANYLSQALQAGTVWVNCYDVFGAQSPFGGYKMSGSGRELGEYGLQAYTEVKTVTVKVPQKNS

[6] = test system: UACC 903 and 1205 Lu cells; assay: Lipid peroxidation; type: cell-based, human; conditions: 5 μmol/L, 24 hours
[7] = test system: UACC 903 and 1205 Lu cells; assay: ROS assay; type: cell-based, human; conditions: 5 μmol/L, 24 hours
ALDH3A1 [8] = molecular target: T3, ALDH3A1 (Homo sapiens, UniProt P30838); assay: ALDH3A1 isoform-specific enzyme assay; type: biochemical; conditions: 15 minutes preincubation
T3 sequence (P30838 1-453): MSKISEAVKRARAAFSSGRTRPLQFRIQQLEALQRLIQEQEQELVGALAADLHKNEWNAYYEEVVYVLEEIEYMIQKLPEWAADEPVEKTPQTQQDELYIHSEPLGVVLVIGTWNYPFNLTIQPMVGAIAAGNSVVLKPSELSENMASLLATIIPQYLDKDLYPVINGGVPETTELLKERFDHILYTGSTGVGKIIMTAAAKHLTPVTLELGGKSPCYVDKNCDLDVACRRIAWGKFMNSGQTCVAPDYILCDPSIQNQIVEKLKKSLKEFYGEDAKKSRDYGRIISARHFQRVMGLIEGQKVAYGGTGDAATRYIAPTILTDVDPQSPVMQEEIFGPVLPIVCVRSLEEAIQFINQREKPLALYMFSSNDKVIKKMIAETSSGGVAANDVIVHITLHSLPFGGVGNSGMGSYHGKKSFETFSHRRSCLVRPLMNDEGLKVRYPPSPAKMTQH

UACC 903 cells = assay: MTS cell viability assay, UACC 903; type: cell-based, human; conditions: 100 μmol/L, 72 hours
[9] = test system: total cellular ALDH activity, 1205 Lu cell lysates; assay: Total cellular ALDH activity assay, 1205 Lu cell lysates; type: biochemical, human; conditions: 1 μmol/L, 15 minutes
[10] = test system: total cellular ALDH activity, UACC 903 cell lysates; assay: Total cellular ALDH activity assay, UACC 903 cell lysates; type: biochemical, human; conditions: 1 μmol/L, 15 minutes

Structure (SMILES): CN(C)CCC(=O)c1ccc(Br)cc1 [Aldi-6]
IC50 (ALDH1A1 [1]; read-out: IC50 for ALDH1A1): 0.6 µM
IC50 (ALDH3A1 [2]; read-out: IC50 for ALDH3A1): 1 µM
IC50 (ALDH2 [3]): 0.8 µM
tumor reduction in HNSCC xenograft models (HNSCC xenograft models): 60%

IC50 (ALDH1A1 [4]; read-out: IC50s ALDH1A1, propionaldehyde substrate): 139 µM
IC50 (ALDH2 [5]): 144 µM
Structure (SMILES): Cc1nc2ccccc2n1S(=O)(=O)c1ccc(F)cc1 [CB7]

Structure (SMILES): CCOC(=O)CSc1nc2c(sc3ccccc32)c(=O)n1CCCN1CCCC1 [CM037]
lipid peroxidation and toxic aldehyde accumulation [6]: significantly increased lipid peroxidation and toxic aldehyde accumulation
ROS levels [7]: significantly increased ROS levels

Structure (SMILES): CCN(CC)c1ccc(C=O)cc1 [DEAB]
lipid peroxidation and toxic aldehyde accumulation [6]: significantly increased lipid peroxidation and toxic aldehyde accumulation
IC50 (ALDH3A1 [8]; read-out: IC50s ALDH3A1, 4-nitrobenzaldehyde substrate): 15.1 µM
ROS levels [7]: significantly increased ROS levels
reduction of UACC 903 cell survival (UACC 903 cells): 30%

Structure (SMILES): CSC(=O)C#CC(C)(C)N(C)C [DIMATE, 4-dimethylamino-4-methyl–pent-2-ynthioic acid-S-methylester]
IC50 (ALDH1A1 [1]; read-out: IC50 toward ALDH1A1): 5 µM
IC50 (ALDH3A1 [2]; read-out: IC50 toward ALDH3A1): 5 µM

IC50 (ALDH3A1 [8]; IC50s ALDH3A1, 4-nitrobenzaldehyde substrate): 5.05 µM
IC50 (ALDH1A1 [4]; IC50s ALDH1A1, propionaldehyde substrate): 15.6 µM
Structure (SMILES): O=C1Nc2ccccc2C1=O [Isatin]
reduction of total cellular ALDH activity, 1205 Lu [9]: ineffective
reduction of total cellular ALDH activity, UACC 903 [10]: ineffective
